Target: DNA-PK (Homo sapiens, UniProt P78527)
Assay: DNA-PK inhibition assay (radiometric, 33P-ATP)
Assay type: biochemical
Settings: 100 μM ATP, competitive tight-binding fit
How it was run: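 33P transfer from 100 µM ATP to a DNA-PK peptide (0.8 mg/mL) is measured after 45 min, using about 6 nM enzyme activated by 10 µg/mL sheared dsDNA (HEPES pH 7.5, MgCl2, DTT). Filter-bound counts fitted to a competitive tight-binding inhibition model give Ki.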

Compound	Ki [nM]
CCOc1cc(-c2cc(NC[C@@H](C)c3ccc(F)c4c(C(=O)NC)ccnc34)ncn2)cnc1OCC [Compound 905]	< 30
CNC(=O)c1ccc(C(C)CNc2cc(-c3cnc4c(cnn4C[C@@H](O)CO)c3)ncn2)c(OC)c1 (stereo partly shown) [Compound 225]	< 30
CNC(=O)c1ccnc2c([C@H](C)CNc3cc(-c4cnc(N5CCN(CC(F)F)CC5)nc4)ncn3)cccc12 [Compound 757]	< 30
C[C@H](CNc1cc(-c2cc(F)c3ncccc3c2)ncn1)c1ccnc2c1OCC2 [Compound 597]	< 30
CC(CNc1cc(-c2ccc(N3CCN(C)CC3)nc2)ncn1)c1cnccc1OC1CC1 (stereo not shown) [Compound 177]	< 30
CNC(=O)c1c(F)cnc2c([C@H](C)CNc3cc(-c4ccnc(C5CC5)c4)ncn3)cccc12 [Compound 917]	< 30
CC(CNc1cc(-c2cnc3c(cnn3CCO)c2)ncn1)c1cccc2nccnc12 (stereo not shown) [Compound 401]	< 30
CNC(=O)CNc1ccc(-c2cc(NC[C@@H](C)c3cccc4c(C(=O)NC)ccnc34)ncn2)cn1 [Compound 632]	< 30
CNC(=O)c1ccnc2c([C@H](C)CNc3cc(-c4ccc(C)cc4F)ncn3)cccc12 [Compound 805]	< 30
CCOc1ccc(-c2cc(NCC(C)c3ccc(C(=O)NC)cc3OC)ncn2)cn1 (stereo not shown) [Compound 322]	< 30
Cc1cc([C@H](C)CNc2cc(-c3ccc4ncccc4c3)ncn2)c2c(n1)CCO2 [Compound 508]	< 30
C[C@H](CNc1cc(-c2cnc(F)c(N)c2)ncn1)c1ccnc2c1OCCO2 [Compound 554]	< 30
CNC(=O)c1ccnc2c([C@H](C)CNc3cc(-c4cncnc4)ncn3)cccc12 [Compound 605]	< 30
CCc1ncc(-c2cc(NC[C@@H](C)c3ccc(F)c4c(C(=O)NC)ccnc34)ncn2)cn1 [Compound 830]	< 30
COc1cc(C(=O)NCC(F)F)ccc1[C@H](C)CNc1cc(-c2ccc(C)nc2)ncn1 [Compound 405]	< 30
CNC(=O)c1ccnc2c([C@H](C)CNc3cc(-c4cnc(OC5CCC5)nc4)ncn3)ccc(F)c12 [Compound 982]	< 30

Compound	Ki [nM]
CCNC(=O)Cn1ncc2cc(-c3cc(NC[C@@H](C)c4ccccc4OC)ncn3)cnc21 [Compound 147]	< 30
Cc1ccc(-c2cc(NCC(C)c3cccc4cc(F)cnc34)ncn2)cn1 (stereo not shown) [Compound 346]	< 30
CC(CNc1cc(-c2cnc3c(cnn3CCO)c2)ncn1)c1cccc2scnc12 (stereo not shown) [Compound 402]	< 30
COc1cc(F)c(F)cc1C(C)CNc1cc(-c2ccc(C)nc2)ncn1 (stereo not shown) [Compound 117]	< 30
CNC(=O)c1c(F)cnc2c([C@H](C)CNc3cc(-c4ccc(C(C)(C)O)nc4)ncn3)cccc12 [Compound 866]	< 30
CNC(=O)c1ccnc2c([C@H](C)CNc3cc(-c4ccc(OC(C)(C)C)cc4)ncn3)cccc12 [Compound 755]	< 30
CNC(=O)c1c(F)cnc2c([C@H](C)CNc3cc(-c4ccc(F)nc4)ncn3)cccc12 [Compound 899]	< 30
Cc1cc([C@H](C)CNc2cc(-c3cnc4c(cnn4CCO)c3)ncn2)c2c(n1)CCO2 [Compound 505]	< 30
COCCn1ncc2cc(-c3cc(NC[C@@H](C)c4ccccc4OC)ncn3)cnc21 [Compound 139]	< 30
CNC(=O)c1ccnc2c([C@H](C)CNc3cc(-c4cnc(C5CCOCC5)nc4)ncn3)ccc(F)c12 [Compound 832]	< 30
CNC(=O)c1ccnc2c([C@H](C)CNc3cc(-c4ccc(S(C)(=O)=O)cc4)ncn3)cccc12 [Compound 675]	< 30
COc1ccccc1[C@H](C)CNc1cc(-c2ccc(NC(CO)CO)nc2)ncn1 [Compound 199]	< 30
CNC(=O)c1ccnc2c([C@H](C)CNc3cc(-c4ccc(F)cc4)ncn3)cccc12 [Compound 684]	< 30
CNC(=O)c1ccc([C@H](C)CNc2cc(-c3ccc(C(=O)NC4CC4)cc3)ncn2)c(OC)c1 [Compound 318]	< 30
CCNc1ccc(-c2cc(NC[C@@H](C)c3cccc4c(C(=O)NC)c(F)cnc34)ncn2)cn1 [Compound 979]	< 30
